In the kinase profiling compilation of Christmann-Franck et al. (2016):

Assays:
Assay in all cases: Caliper, Mobility shift assay off-chip
[1] = system: ABL1 (human), P00519 [T315I]
ABL2 (human) = ABL2 (human) (UniProt P42684)
AKT3 (human) = AKT3 (human) (UniProt Q9Y243)
BRSK1 (human) = BRSK1 (human) (UniProt Q8TDC3)
BRSK2 (human) = BRSK2 (human) (UniProt Q8IWQ3)
CHEK1 (human) = CHEK1 (human) (UniProt O14757)
DCLK2 (human) = DCLK2 (human) (UniProt Q8N568)
[2] = system: FGFR2 (human), P21802 [N549H]
FGFR3 (human) = FGFR3 (human) (UniProt P22607)
GSK3B (human) = GSK3B (human) (UniProt P49841)
HCK (human) = HCK (human) (UniProt P08631)
IGF1R (human) = IGF1R (human) (UniProt P08069)
IKBKB (human) = IKBKB (human) (UniProt O14920)
INSR (human) = INSR (human) (UniProt P06213)
KDR (human) = KDR (human) (UniProt P35968)
MAPK12 (human) = MAPK12 (human) (UniProt P53778)
MAPK14 (human) = MAPK14 (human) (UniProt Q16539)
MAPK3 (human) = MAPK3 (human) (UniProt P27361)
MAPKAPK3 (human) = MAPKAPK3 (human) (UniProt Q16644)
MAPKAPK5 (human) = MAPKAPK5 (human) (UniProt Q8IW41)
MARK2 (human) = MARK2 (human) (UniProt Q7KZI7)
MARK3 (human) = MARK3 (human) (UniProt P27448)
PIM1 (human) = PIM1 (human) (UniProt P11309)
PIM2 (human) = PIM2 (human) (UniProt Q9P1W9)
PRKACA (human) = PRKACA (human) (UniProt P17612)
PRKCA (human) = PRKCA (human) (UniProt P17252)
PRKCB1 (human) = PRKCB1 (human) (UniProt P05771)
PRKCZ (human) = PRKCZ (human) (UniProt Q05513)
PRKD2 (human) = PRKD2 (human) (UniProt Q9BZL6)
RPS6KA4 KD1 KD2 (human) = RPS6KA4 KD1 KD2 (human) (UniProt O75676)
RPS6KB1 (human) = RPS6KB1 (human) (UniProt P23443)
SGK1 (human) = SGK1 (human) (UniProt O00141)
SGK3 (human) = SGK3 (human) (UniProt Q96BR1)
SRC (human) = SRC (human) (UniProt P12931)
Chain of SRC (human) (P12931 whole entry, looked up): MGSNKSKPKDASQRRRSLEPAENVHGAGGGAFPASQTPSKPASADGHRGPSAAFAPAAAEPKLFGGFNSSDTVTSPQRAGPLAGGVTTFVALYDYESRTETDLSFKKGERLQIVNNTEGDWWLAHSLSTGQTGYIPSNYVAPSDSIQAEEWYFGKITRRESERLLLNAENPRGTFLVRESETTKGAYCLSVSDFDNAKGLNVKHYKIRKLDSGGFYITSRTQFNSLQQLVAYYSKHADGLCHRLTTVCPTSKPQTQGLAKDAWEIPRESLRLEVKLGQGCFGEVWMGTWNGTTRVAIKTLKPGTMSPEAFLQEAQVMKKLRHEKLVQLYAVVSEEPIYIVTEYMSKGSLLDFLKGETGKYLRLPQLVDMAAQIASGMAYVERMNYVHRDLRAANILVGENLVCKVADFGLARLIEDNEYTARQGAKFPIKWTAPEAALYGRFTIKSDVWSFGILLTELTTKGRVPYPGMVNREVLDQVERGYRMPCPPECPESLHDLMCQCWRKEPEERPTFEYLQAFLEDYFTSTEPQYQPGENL

Chain of CHEK1 (human) (O14757 whole entry, looked up): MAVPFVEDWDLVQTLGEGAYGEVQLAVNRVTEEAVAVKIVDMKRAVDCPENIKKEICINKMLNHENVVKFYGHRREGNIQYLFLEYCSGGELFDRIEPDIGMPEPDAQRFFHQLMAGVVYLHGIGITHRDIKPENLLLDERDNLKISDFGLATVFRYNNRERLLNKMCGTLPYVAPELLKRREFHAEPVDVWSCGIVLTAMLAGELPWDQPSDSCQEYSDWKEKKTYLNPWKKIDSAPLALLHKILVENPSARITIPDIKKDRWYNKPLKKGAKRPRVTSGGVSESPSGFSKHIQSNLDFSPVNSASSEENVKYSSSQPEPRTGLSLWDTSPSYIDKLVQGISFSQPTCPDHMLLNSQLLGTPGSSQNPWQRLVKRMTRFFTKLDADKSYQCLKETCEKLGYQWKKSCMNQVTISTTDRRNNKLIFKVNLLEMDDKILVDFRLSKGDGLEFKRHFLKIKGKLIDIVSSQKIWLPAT
Chain of MAPK3 (human) (P27361 whole entry, looked up): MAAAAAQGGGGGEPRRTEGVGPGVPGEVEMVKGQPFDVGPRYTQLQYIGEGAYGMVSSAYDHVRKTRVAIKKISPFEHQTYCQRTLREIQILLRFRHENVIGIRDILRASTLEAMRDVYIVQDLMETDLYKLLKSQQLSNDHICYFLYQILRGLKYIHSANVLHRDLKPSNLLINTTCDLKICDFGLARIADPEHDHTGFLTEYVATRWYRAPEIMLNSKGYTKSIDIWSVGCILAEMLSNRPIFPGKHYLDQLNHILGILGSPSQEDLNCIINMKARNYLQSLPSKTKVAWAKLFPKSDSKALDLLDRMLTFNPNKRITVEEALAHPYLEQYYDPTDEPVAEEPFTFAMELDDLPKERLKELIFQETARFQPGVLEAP
Chain of FGFR3 (human) (P22607 whole entry, looked up): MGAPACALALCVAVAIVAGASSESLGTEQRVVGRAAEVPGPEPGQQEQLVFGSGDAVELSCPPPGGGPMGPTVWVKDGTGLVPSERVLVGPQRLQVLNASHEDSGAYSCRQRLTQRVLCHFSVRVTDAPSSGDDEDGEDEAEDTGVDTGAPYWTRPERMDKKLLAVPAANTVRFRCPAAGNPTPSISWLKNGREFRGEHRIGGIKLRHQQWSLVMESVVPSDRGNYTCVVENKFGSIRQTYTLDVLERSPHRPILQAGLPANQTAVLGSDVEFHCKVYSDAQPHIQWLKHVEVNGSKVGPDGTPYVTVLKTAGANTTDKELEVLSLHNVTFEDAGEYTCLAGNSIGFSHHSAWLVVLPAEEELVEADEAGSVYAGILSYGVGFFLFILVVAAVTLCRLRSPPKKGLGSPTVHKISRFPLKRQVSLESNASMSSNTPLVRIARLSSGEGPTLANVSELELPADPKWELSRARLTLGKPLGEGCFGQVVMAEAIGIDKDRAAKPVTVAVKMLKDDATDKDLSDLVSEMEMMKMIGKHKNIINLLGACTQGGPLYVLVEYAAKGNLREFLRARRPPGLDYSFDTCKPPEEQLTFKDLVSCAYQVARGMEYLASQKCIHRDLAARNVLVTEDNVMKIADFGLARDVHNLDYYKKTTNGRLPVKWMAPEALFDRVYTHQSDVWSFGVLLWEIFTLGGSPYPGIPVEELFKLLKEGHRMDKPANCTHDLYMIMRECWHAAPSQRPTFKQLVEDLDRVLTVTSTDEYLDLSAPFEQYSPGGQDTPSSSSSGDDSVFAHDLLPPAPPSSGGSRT
Chain of PRKCB1 (human) (P05771 whole entry, looked up): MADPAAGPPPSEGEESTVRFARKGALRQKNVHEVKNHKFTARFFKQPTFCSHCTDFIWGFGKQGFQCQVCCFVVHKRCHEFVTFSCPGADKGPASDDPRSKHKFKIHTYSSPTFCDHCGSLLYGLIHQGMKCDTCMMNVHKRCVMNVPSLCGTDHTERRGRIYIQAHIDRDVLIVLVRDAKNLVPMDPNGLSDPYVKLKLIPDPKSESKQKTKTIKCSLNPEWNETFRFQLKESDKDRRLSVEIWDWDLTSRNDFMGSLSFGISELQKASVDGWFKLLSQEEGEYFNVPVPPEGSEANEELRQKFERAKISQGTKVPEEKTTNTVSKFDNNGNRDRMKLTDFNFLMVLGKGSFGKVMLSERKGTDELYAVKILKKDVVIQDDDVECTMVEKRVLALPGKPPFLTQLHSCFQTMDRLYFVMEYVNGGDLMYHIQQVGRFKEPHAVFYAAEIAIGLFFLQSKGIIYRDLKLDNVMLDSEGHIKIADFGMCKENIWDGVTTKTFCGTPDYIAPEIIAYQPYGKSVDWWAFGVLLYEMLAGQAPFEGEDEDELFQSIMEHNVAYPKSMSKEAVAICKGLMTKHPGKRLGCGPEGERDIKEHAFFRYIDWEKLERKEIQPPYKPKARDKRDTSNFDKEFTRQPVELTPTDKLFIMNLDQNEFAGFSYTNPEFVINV
Chain of GSK3B (human) (P49841 whole entry, looked up): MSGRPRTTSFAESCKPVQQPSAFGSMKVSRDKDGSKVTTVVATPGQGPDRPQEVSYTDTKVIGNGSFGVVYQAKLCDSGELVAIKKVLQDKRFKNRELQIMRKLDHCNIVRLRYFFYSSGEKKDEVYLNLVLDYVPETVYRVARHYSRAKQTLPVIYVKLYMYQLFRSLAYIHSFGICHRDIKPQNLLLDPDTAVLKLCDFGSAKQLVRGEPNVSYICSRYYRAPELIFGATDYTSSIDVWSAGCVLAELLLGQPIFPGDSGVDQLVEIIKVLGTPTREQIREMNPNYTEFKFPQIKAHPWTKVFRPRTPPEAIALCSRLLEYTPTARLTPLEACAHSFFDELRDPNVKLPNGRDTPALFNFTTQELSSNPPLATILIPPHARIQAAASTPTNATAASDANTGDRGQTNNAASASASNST
Chain of MARK2 (human) (Q7KZI7 whole entry, looked up): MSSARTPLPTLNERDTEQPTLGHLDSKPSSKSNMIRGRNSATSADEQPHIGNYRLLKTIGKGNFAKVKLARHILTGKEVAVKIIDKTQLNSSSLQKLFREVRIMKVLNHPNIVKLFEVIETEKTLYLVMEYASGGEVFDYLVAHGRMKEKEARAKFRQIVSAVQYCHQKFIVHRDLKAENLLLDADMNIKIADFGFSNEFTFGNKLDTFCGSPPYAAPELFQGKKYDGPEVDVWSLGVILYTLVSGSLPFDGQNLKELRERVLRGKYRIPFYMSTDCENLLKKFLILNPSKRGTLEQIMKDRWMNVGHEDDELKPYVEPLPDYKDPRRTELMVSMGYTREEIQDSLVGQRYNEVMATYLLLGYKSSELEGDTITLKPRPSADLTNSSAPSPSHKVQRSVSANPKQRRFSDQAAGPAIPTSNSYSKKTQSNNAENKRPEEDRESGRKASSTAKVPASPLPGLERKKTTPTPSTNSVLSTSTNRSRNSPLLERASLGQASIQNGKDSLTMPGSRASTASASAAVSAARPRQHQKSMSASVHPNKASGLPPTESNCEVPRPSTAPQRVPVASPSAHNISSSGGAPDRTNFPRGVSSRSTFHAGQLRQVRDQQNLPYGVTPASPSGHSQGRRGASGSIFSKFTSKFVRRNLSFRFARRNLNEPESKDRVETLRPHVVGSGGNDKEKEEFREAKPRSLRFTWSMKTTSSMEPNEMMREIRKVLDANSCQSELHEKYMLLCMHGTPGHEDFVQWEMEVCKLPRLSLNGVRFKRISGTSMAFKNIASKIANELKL
Chain of DCLK2 (human) (Q8N568 whole entry, looked up): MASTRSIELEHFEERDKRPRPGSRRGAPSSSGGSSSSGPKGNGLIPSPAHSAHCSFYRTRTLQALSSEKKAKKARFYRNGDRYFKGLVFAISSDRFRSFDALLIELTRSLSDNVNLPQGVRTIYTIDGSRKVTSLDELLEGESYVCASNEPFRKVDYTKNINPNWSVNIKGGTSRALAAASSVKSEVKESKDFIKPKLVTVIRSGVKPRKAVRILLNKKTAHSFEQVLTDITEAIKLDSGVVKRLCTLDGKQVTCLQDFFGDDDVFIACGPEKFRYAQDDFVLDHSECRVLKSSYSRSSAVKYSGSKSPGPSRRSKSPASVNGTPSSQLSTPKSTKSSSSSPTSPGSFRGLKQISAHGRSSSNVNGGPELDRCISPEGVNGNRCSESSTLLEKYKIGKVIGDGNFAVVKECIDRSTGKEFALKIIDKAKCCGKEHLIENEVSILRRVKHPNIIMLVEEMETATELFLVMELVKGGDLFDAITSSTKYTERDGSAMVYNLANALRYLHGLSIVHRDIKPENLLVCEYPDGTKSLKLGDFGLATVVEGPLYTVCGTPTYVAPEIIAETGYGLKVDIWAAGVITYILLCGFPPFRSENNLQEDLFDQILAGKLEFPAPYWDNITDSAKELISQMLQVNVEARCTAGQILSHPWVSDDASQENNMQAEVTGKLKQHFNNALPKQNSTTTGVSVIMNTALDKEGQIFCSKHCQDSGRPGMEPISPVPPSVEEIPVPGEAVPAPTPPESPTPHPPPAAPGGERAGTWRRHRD

In the case of `O=C(CCc1ccc2ccc3ncc(C4CCNCC4)cc3c(=O)c2c1)NCc1ccccn1`, the inhibition ([1]; compound 0.1 µM) is reported as 2.7%, the inhibition ([1]; compound 1.0 µM) is reported as 1.3% and the inhibition (ABL2 (human); compound 0.1 µM) is reported as 2.6%. For the same compound, the inhibition (ABL2 (human); compound 1.0 µM) was -3.4%, the inhibition (AKT3 (human); compound 0.1 µM) was -12.5% and the inhibition (AKT3 (human); compound 1.0 µM) was 2.1%. It also gave an inhibition (BRSK1 (human); compound 0.1 µM) of -1.6%, an inhibition (BRSK1 (human); compound 1.0 µM) of 1.6% and an inhibition (BRSK2 (human); compound 0.1 µM) of 3.4%. For the same compound, the inhibition (BRSK2 (human); compound 1.0 µM) was -3.3%, the inhibition (CHEK1 (human); compound 0.1 µM) was -0.6% and the inhibition (CHEK1 (human); compound 1.0 µM) was 2.9%. The inhibition (DCLK2 (human); compound 0.1 µM) was 2%, the inhibition (DCLK2 (human); compound 1.0 µM) was 5.8% and the inhibition ([2]; compound 0.1 µM) was -8.4%. The inhibition ([2]; compound 1.0 µM) was 0.9%, the inhibition (FGFR3 (human); compound 0.1 µM) was 0.5% and the inhibition (FGFR3 (human); compound 1.0 µM) was 4.9%. For the same compound, the inhibition (GSK3B (human); compound 0.1 µM) was -0.6%, the inhibition (GSK3B (human); compound 1.0 µM) was -3.3% and the inhibition (HCK (human); compound 0.1 µM) was -1.8%. For the same compound, the inhibition (HCK (human); compound 1.0 µM) was 3.1%, the inhibition (IGF1R (human); compound 0.1 µM) was -3% and the inhibition (IGF1R (human); compound 1.0 µM) was 1.3%. The inhibition (IKBKB (human); compound 0.1 µM) was 1.2%, the inhibition (IKBKB (human); compound 1.0 µM) was -3.1% and the inhibition (INSR (human); compound 0.1 µM) was 5.1%. The inhibition (INSR (human); compound 1.0 µM) was 3.5%, the inhibition (KDR (human); compound 0.1 µM) was 4.9% and the inhibition (KDR (human); compound 1.0 µM) was 16.8%. For the same compound, the inhibition (MAPK12 (human); compound 0.1 µM) was 6.1%, the inhibition (MAPK12 (human); compound 1.0 µM) was 8.3% and the inhibition (MAPK14 (human); compound 0.1 µM) was -10.6%. For the same compound, the inhibition (MAPK14 (human); compound 1.0 µM) was 5.1%, the inhibition (MAPK3 (human); compound 0.1 µM) was 1.7% and the inhibition (MAPK3 (human); compound 1.0 µM) was -0.5%. The inhibition (MAPKAPK3 (human); compound 0.1 µM) was -0.3%, the inhibition (MAPKAPK3 (human); compound 1.0 µM) was 0.5% and the inhibition (MAPKAPK5 (human); compound 0.1 µM) was -4.3%. The inhibition (MAPKAPK5 (human); compound 1.0 µM) was 2.9%, the inhibition (MARK2 (human); compound 0.1 µM) was -4.6% and the inhibition (MARK2 (human); compound 1.0 µM) was -1.8%. It also gave an inhibition (MARK3 (human); compound 0.1 µM) of 0.7%, an inhibition (MARK3 (human); compound 1.0 µM) of -4.4% and an inhibition (PIM1 (human); compound 0.1 µM) of -2.4%. It also gave an inhibition (PIM1 (human); compound 1.0 µM) of -4.4%, an inhibition (PIM2 (human); compound 0.1 µM) of -0.1% and an inhibition (PIM2 (human); compound 1.0 µM) of -3.2%. For the same compound, the inhibition (PRKACA (human); compound 0.1 µM) was 2.5%, the inhibition (PRKACA (human); compound 1.0 µM) was 4.8% and the inhibition (PRKCA (human); compound 0.1 µM) was -9.4%. It also gave an inhibition (PRKCA (human); compound 1.0 µM) of 15.8%, an inhibition (PRKCB1 (human); compound 0.1 µM) of 1.2% and an inhibition (PRKCB1 (human); compound 1.0 µM) of -12.2%. The inhibition (PRKCZ (human); compound 0.1 µM) was 0.7%, the inhibition (PRKCZ (human); compound 1.0 µM) was 1.2% and the inhibition (PRKD2 (human); compound 0.1 µM) was 7.5%. For the same compound, the inhibition (PRKD2 (human); compound 1.0 µM) was 0%, the inhibition (RPS6KA4 KD1 KD2 (human); compound 0.1 µM) was -5.8% and the inhibition (RPS6KA4 KD1 KD2 (human); compound 1.0 µM) was 1%. The inhibition (RPS6KB1 (human); compound 0.1 µM) was 10.9%, the inhibition (RPS6KB1 (human); compound 1.0 µM) was -3.3% and the inhibition (SGK1 (human); compound 0.1 µM) was -2.2%. For the same compound, the inhibition (SGK1 (human); compound 1.0 µM) was -6%, the inhibition (SGK3 (human); compound 0.1 µM) was 9% and the inhibition (SGK3 (human); compound 1.0 µM) was 1%. For the same compound, the inhibition (SRC (human); compound 0.1 µM) was 1.1% and the inhibition (SRC (human); compound 1.0 µM) was 6.6%.
